Like-named read-outs stand apart in the source and are kept apart here.

The target in experiment [1] is T1, androgen receptor (Homo sapiens, UniProt P10275).
T1 sequence (P10275 1-920): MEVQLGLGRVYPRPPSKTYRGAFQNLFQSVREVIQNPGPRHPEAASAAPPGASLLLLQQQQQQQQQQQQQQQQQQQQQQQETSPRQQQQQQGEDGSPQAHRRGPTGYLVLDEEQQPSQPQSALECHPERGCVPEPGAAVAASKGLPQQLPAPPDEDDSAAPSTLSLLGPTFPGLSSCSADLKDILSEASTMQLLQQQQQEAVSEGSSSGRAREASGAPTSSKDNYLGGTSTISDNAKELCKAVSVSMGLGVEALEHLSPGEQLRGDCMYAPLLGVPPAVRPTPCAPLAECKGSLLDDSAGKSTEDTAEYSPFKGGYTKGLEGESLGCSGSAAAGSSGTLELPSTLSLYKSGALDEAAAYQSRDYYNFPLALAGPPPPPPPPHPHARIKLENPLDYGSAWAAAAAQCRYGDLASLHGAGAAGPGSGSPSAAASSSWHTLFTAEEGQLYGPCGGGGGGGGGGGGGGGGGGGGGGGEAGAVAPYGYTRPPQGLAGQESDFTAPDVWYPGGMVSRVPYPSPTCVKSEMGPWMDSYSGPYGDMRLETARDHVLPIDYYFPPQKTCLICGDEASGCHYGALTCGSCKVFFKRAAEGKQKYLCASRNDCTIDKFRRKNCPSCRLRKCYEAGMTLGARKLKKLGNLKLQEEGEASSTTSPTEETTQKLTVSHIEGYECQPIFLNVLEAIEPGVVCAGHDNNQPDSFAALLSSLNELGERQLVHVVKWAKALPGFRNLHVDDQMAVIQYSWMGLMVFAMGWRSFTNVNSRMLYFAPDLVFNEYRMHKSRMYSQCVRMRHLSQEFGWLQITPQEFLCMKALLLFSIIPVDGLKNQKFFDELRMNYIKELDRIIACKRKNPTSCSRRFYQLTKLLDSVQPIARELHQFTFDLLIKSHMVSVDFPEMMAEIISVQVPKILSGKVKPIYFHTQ
As to the kind of experiment: Androgenic/antiandrogenic action by transactivation test (PC3 reporter cells). Type of experiment: cell-based. The arrangement: expressed in transfected cells; host or cells: PC3 cells. Here is the method: (§1) The test compounds were added eight hours later, and the cells were incubated with the compounds for 16 hours. The tests were carried out in triplicate. At the end of incubation the medium containing the effector was removed and replaced with lysis buffer. After luciferase assay substrate (Promega, #E1501) had been added, the 96-well plates were then put in a microplate luminometer (Pherastar, BMG Labtech), and the luminescence was measured. The IC50 values were evaluated using software for calculating dose-effect relations.
6. Determination of Androgenic/Antiandrogenic Action by Means of Transactivation Tests:
The androgenic/antiandrogenic action of the test substances was determined as for the transactivation tests described above.
The following modifications were made: In this case reporter cell lines were used (PC3 cells) that express the androgen receptor, and a reporter construct that contains luciferase under the control of a steroid hormone-responsive promoter.
For determination of the antiandrogenic efficacy, 0.05 nM R1881 was added to the cells, in order to achieve almost maximum stimulation of the reporter gene.

The target of experiment [2] is T1, androgen receptor. Nature of the experiment: Androgen receptor binding test. More on the design: expressed in transfected cells. Particulars: reference substance 3H-testosterone.
Experiment [3] has as its target T2, mineralocorticoid receptor (Homo sapiens, UniProt P08235).
T2 sequence (P08235 1-984): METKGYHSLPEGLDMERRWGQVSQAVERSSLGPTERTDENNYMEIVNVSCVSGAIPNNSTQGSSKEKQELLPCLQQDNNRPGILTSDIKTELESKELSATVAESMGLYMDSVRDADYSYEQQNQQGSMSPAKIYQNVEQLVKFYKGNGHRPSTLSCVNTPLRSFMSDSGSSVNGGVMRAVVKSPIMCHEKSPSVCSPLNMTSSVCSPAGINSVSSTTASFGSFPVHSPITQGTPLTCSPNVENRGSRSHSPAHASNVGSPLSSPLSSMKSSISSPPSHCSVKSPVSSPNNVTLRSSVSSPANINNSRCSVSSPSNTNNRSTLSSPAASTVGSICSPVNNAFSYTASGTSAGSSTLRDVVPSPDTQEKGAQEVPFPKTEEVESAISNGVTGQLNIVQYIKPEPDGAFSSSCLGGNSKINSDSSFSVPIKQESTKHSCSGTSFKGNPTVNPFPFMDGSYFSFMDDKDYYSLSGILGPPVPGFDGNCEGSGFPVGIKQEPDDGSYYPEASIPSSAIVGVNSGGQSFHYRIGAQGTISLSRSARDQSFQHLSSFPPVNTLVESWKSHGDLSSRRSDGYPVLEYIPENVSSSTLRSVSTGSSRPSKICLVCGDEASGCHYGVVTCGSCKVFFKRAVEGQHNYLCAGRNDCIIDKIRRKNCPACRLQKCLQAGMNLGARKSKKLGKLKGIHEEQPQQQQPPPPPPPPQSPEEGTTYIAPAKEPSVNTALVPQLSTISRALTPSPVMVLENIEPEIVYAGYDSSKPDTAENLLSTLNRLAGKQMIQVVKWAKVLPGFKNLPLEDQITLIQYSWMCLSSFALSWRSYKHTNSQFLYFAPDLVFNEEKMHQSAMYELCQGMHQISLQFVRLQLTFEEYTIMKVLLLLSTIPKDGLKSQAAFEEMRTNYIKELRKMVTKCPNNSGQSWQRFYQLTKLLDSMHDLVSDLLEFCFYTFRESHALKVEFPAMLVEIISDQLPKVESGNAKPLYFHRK
As to the kind of experiment: Mineralocorticoid receptor binding test. More on the design: made in house; host or cells: Hi5 insect cells (cytosol). Particulars: reference substance 3H-aldosterone, cytosol from MR-expressing insect cells (Hi5). Here is the method: Using cytosol from progesterone receptor-expressing insect cells (Hi5), competitive binding to the progesterone receptor was determined from the ability to displace ^3H-progesterone as reference substance from the receptor.
2. Mineralocorticoid Receptor Binding Test:
The test was carried out as in 1, with the following modifications: cytosol from mineralocorticoid receptor-expressing insect cells (Hi5) was used, and the reference substance was ^3H-aldosterone.

In experiment [4] the target is T2, mineralocorticoid receptor. As to the kind of experiment: Antimineralocorticoid action by transactivation test (MDCK reporter cells).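 On Emax: percent inhibition of the aldosterone-stimulated reporter signal.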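 On Mineralocorticoid receptor Antagonism efficacy: percent inhibition of the aldosterone-stimulated reporter signal.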 The settings on record: for Emax: read-out: Mineralocorticoid receptor Antagonism efficacy. Type of experiment: cell-based. More on the design: expressed in transfected cells; host or cells: MDCK cells. Here is the method: as §1
5. Determination of Antimineralocorticoid Action by Means of Transactivation Tests:
The antimineralocorticoid activity of the test substances was determined as for the transactivation tests described above.
The following modifications were undertaken: In this case reporter cell lines were used (MDCK cells) that express the human mineralocorticoid receptor, and transiently contain a reporter construct that contains luciferase under the control of a steroid hormone-responsive promoter.

The mark [5] stands for this setting: PC-3, read-out: Androgen receptor Agonism efficacy.
The mark [6] stands for this setting: PC-3, read-out: Androgen receptor Antagonism efficacy.

A word on the EC50: it is the concentration that produces a half-maximal response. What is called IC50 is the concentration that gives 50% inhibition. `CC[C@@H]1CC2=CC(=O)CC[C@@H]2[C@H]2CC[C@@]3(C)[C@@H]([C@@H]4C[C@@H]4[C@@]34C=CC(=O)O4)[C@H]12` [Example 24A, 7α-Ethyl-17β-hydroxy-15β,16β-methylene-19-nor-17α-pregna-4,20(Z)-dien-3-one-21-carboxylic acid γ-lactone] gave an EC50 at androgen receptor [1] of 0.052 µM. In addition, the IC50 at androgen receptor [1] turned out to be 0.011 µM; in experiment [4] it was 0.16 µM. Besides, the Emax on androgen receptor [1] (setting [5]) was found to be 36.8%; at androgen receptor [1] (setting [6]), 22.5%; in experiment [4] (MDCK), 81.1%. Further, on androgen receptor [2], the “Androgen receptor Competition factor” value was 8.1. In addition, in experiment [3], the “Mineralocorticoid receptor (MR) Competition factor” value (shortened to “Mineralocorticoid receptor”) amounted to 1.9.
At androgen receptor [1], `C[C@]12CC[C@H]3[C@@H](CCC4=C(Cl)C(=O)CC[C@@H]43)[C@@H]1[C@@H]1C[C@@H]1[C@@]21C=CC(=O)O1` [Example 27, 4-Chloro-17β-hydroxy-15β,16β-methylene-19-nor-17α-pregna-4,20(Z)-dien-3-one-21-carboxylic acid γ-lactone] came in with an EC50 of 0.0695 µM. Besides, the results for the Emax (on androgen receptor [1] (setting [5]); at androgen receptor [1] (setting [6]); in experiment [4] (MDCK)) were 66.9%, 5% and 5%, respectively. Also, the “Androgen receptor Competition factor” value on androgen receptor [2] was found to be 36.4. For the same compound, the “Mineralocorticoid receptor” value in experiment [3] turned out to be 47.0. For the same compound, the IC50 in experiment [4] worked out at 1 µM.
`CC[C@]12CC[C@H]3[C@H]([C@@H]1[C@@H]1C[C@@H]1[C@@]21C=CC(=O)O1)[C@H](C1CC1)CC1=CC(=O)CC[C@@H]13` [Example 7A, 17β-Hydroxy-7α-cyclopropyl-18-methyl-15β,16β-methylene-19-nor-17α-pregna-4,20(Z)-dien-3-one-21-carboxylic acid γ-lactone] had an EC50 at androgen receptor [1] of 0.033 µM. In addition, the figures for the Emax (at androgen receptor [1] (setting [5]); on androgen receptor [1] (setting [6]); in experiment [4] (MDCK)) were 62.6%, 5% and 102%, respectively. Further, on androgen receptor [2], the “Androgen receptor Competition factor” value worked out at 5.2. The “Mineralocorticoid receptor” value in experiment [3] was 4.7. In experiment [4], this compound came in with an IC50 of 0.077 µM.
In turn, `C[C@]12CC[C@H]3[C@@H](CCC4=CC(=O)CC[C@@H]43)[C@@H]1[C@@H]1C[C@@H]1[C@@]21C=CC(=O)O1` [Example 19, 17β-Hydroxy-15β,16β-methylene-19-nor-17α-pregna-4,20(Z)-dien-3-one-21-carboxylic acid γ-lactone] came in with an EC50 on androgen receptor [1] of 0.0053 µM. The Emax on androgen receptor [1] (setting [5]) is 87.5%; on androgen receptor [1] (setting [6]), 5%; in experiment [4] (MDCK) it was 92.8%. For the same compound, the “Androgen receptor Competition factor” value on androgen receptor [2] turned out to be 6.4. For the same compound, the “Mineralocorticoid receptor” value in experiment [3] is given as 187.0. Further, in experiment [4], the IC50 was found to be 0.062 µM.
On to `C[C@]12CC[C@H]3[C@@H](C[C@@H](CO)C4=CC(=O)CC[C@@H]43)[C@@H]1[C@@H]1C[C@@H]1[C@@]21C=CC(=O)O1` [Example 21, 17β-Hydroxy-6β-hydroxymethylene-15β,16β-methylene-19-nor-17α-pregna-4,20(Z)-dien-3-one-21-carboxylic acid γ-lactone], for which the IC50 against androgen receptor [1] worked out at 0.5 µM; in experiment [4] (MDCK cells, with 1 nM aldosterone, read-out: Mineralocorticoid receptor Antagonism IC50), 0.16 µM. The Emax was 5% on androgen receptor [1] (setting [5]); 15.7% at androgen receptor [1] (setting [6]); 68% in experiment [4] (MDCK cells, with 1 nM aldosterone). For the same compound, on androgen receptor [2], the “Androgen receptor Competition factor” value is 1000.0.
Regarding `CC[C@@H]1CC2=CC(=O)CC[C@@H]2[C@H]2CC[C@@]3(CC)[C@@H]([C@@H]4C[C@@H]4[C@@]34C=CC(=O)O4)[C@H]12` [Example 5A, 17β-Hydroxy-7α-ethyl-18-methyl-15β,16β-methylene-19-nor-17α-pregna-4,20(Z)-dien-3-one-21-carboxylic acid γ-lactone], a half-maximal effect on androgen receptor [1] (EC50) was put at 0.0083 µM. Also, the Emax was found to be 73% on androgen receptor [1] (setting [5]) and 5% on androgen receptor [1] (setting [6]). On androgen receptor [2], the “Androgen receptor Competition factor” value is recorded as 4.1. Further, the “Mineralocorticoid receptor” value in experiment [3] is 1.0.

Source of the values: patent publication US20110015162A1, “15,16-Methylene-17-hydroxy-19-nor-21-carboxylic acid-steroid Y-lactone derivative, use thereof and medicinal products containing the derivative” (Bayer Schering Pharma Aktiengesellschaft, priority 2007, published 2011).
